# Laboratory results published in patent publication US6656970B2, “Method and compositions for solubilization of pentacyclic triterpenes” (Dabur Research Foundation, priority 2000, dated 2003).
# Columns and labels:
# [1] = Solubility in individual solvents; format: physicochemical
# Experimental: (§1) The solubility of betulinic acid and its derivatives was determined in various individual solvents. Based on the solubility of betulinic acid in these particular vehicles, it was then attempted to enhance the solubility of betulinic acid by mixing different solvents according to the principles of co-solvency (Spiegel and Noseworthy, 1963, Yalkowsky and Roseman, 1981). Different solvent systems were evaluated to arrive at a suitable relevant stock composition. The stock composition would then be diluted with a final solvent or intravenous solution to yield a working formulation of 0.001-40 mg/ml.
# (§2) Several methods and compositions were evaluated for their ability to solubilize betulinic acid and its derivatives in water miscible, physiologically acceptable vehicles. The solvents that were tried included DMA, dimethylsulfoxide (DMSO), absolute ethanol, glycerin, polyethylene glycols (PEGs) and propylene glycol, in addition to the aqueous diluting fluids normal saline, and 2-25% dextrose in solution.
# [2] = tested on: cultured human melanoma cells; conditions: cited from earlier work
# human melanomas = conditions: cited from earlier work
# [3] = Clarity / precipitation on dilution of the composition with aqueous diluting fluid; format: physicochemical
# Experimental: as §1, §2
# (§3) In the following examples one or more co-solvents with a solubilizers or a combination of (solubilizers) was added to keep the drug in solution after diluting with an aqueous intravenous diluting fluid.
# [4] = Amount of drug dissolved in solvent/co-solvent/solubilizer compositions; format: physicochemical
# Experimental: as §1, §2
# A concentrated solution of betulinic acid or its derivatives was prepared by dissolving 50-200 mg of betulinic acid or its derivatives in 1 ml of DMA. The above stock solution was diluted with PEG (polyethylene glycol, MW 300) in a ratio of 1:4 to a concentration of 10-40 mg/ml.
# as §3
# [5] = Example 6: DMA 50% v/v, Tween 80 50% w/v
compound,measurement,setting,value
C=C(C)[C@@H]1CC[C@]2(C(=O)O)CC[C@]3(C)[C@H](CC[C@@H]4[C@@]5(C)CC[C@H](O)C(C)(C)[C@@H]5CC[C@]43C)[C@@H]12 [betulinic acid],solubility,"[1]; Absolute ethanol, organic solvent or mixture, Absolute ethanol, varies depending upon the derivative, read-out: SOLUBILITY",3000 to 10000 µg/mL
same,solubility,"[1]; Dimethylsulfoxide (DMSO), organic solvent or mixture, Dimethylsulfoxide (DMSO), read-out: SOLUBILITY",≤ 100000 µg/mL
same,solubility,[1]; Glycerin,insoluble
same,solubility,"[1]; N,N-dimethylacetamide (DMA), organic solvent or mixture, N,N Dimethylacetamide (DMA), read-out: SOLUBILITY",≤ 250000 µg/mL
same,solubility,"[1]; Polyethylene glycols (MW 200, 300, 400), organic solvent or mixture, Polyethylene glycols (MW 200, 300, 400), read-out: SOLUBILITY",< 5000 µg/mL
same,solubility,"[1]; Propylene glycol, organic solvent or mixture, Propylene glycol, read-out: SOLUBILITY",< 5000 µg/mL
same,solubility,[1]; Water,insoluble
same,solubility,[1]; most of the aqueous solvents,insoluble
same,cytotoxicity,[2],melanoma-specific cytotoxic agent
same,tumor growth,human melanomas; athymic mice carrying human melanomas,completely inhibited
same,toxicity,"human melanomas; mouse, in vivo",without toxicity
same,behaviour on dilution with the aqueous diluting fluid,"[3]; Example 3: 50 mg drug, DMA 20% v/v, PEG 300 80% v/v, even at concentrations as low as 0.001-0.1 mg/ml",immediate precipitation
same,behaviour on dilution with the aqueous diluting fluid,"[3]; Example 3: 200 mg drug, DMA 20% v/v, PEG 300 80% v/v",immediately precipitated out
same,behaviour on dilution with aqueous diluting fluid,"[3]; Example 4: 50 mg drug, DMA 50% v/v, PEG 300 50% v/v, diluted with 2-25% dextrose or normal saline",gave a viscous solution which gels over time although there are no signs of any precipitation of drug
same,behaviour on dilution with aqueous diluting fluid,[3]; [5],immediately precipitated out
same,time the drug solution remained clear on dilution,"[3]; Example 7: Absolute ethanol 20-40% v/v, Tween 80 60-80% w/v, diluted with aqueous diluting fluid to 0.3-1.4 mg/ml",≤ 3 h
same,behaviour on dilution with aqueous diluting fluid,"[3]; Example 8: Absolute ethanol 65% v/v, Tween 80 5% w/v, PEG 300 30% v/v, diluted to 0.08-0.4 mg/ml",remained clear
same,behaviour on dilution with aqueous diluting fluid,"[3]; Example 9: Absolute ethanol 35% v/v, Tween 80 15% w/v, PEG 300 50% v/v, diluted to 0.08 to 0.4 mg/ml",remained clear
same,behaviour on dilution with aqueous diluting fluid,"[3]; Example 9 composition, diluted outside the range 0.08 to 0.4 mg/ml",immediate precipitation
same,time the composition remained clear without any precipitation on dilution,"[3]; Example 16: DMA 20-50% v/v, PEG 300 20-40% v/v, Tween 80 5-30% w/v, diluted with aqueous diluting fluid to 0.1-10 mg/ml",more than 5 days
same,behaviour on dilution with an aqueous diluting fluid,"[3]; Examples 10 and 11 compositions, at a lower concentration of 0.012-2 mg/ml",remains clear
same,behaviour on dilution with aqueous diluting fluid,"[3]; Examples 12 and 13 compositions containing MYRJ 52, diluted to 0.1-1.0 mg/ml",precipitated out in a few hours
same,behaviour on dilution with the aqueous diluting fluid,"[3]; Examples 14 and 15 compositions, only at lower dilutions (0.001-1 mg/ml)",remained soluble
same,drug concentration the composition could dissolve,[4]; [5],≤ 20000 µg/mL
same,drug concentration the composition could dissolve,"[4]; Example 7: Absolute ethanol 20-40% v/v, Tween 80 60-80% w/v",≤ 20000 µg/mL
same,drug concentration the composition could dissolve,"[4]; Example 8: Absolute ethanol 65% v/v, Tween 80 5% w/v, PEG 300 30% v/v",up to 6 mg/ml
same,drug concentration the composition could dissolve,"[4]; Example 9: Absolute ethanol 35% v/v, Tween 80 15% w/v, PEG 300 50% v/v",up to 4 mg/ml
same,drug concentration that could be dissolved in the compositions,"[4]; Example 16: DMA 20-50% v/v, PEG 300 20-40% v/v, Tween 80 5-30% w/v",Up to 22 mg/ml
same,drug concentration the compositions could dissolve,"[4]; Examples 12 and 13: DMA 20% v/v, MYRJ 52 20-30% w/v, Tween 20-50% w/v, with or without PEG 300 40% v/v",≤ 20000 µg/mL
same,drug concentration the compositions could dissolve,"[4]; Examples 14 and 15: DMA 20% v/v, Tween 80 20% w/v, PEG 300 55-57% v/v, Poloxamer 407 3% w/v or Lecithin 5% w/v",2000 to 15000 µg/mL
same,solubility,"[4]; organic solvent or mixture, Examples 10 and 11: DMA 10-20% v/v, Propylene glycol 10-20% v/v, Absolute ethanol 30-35% v/v, Tween 80 35-40% w/v, read-out: concentration range soluble in the system",2000 to 15000 µg/mL
